Reference: patent publication US6340455B1, “Testkit and method” (Peridoc AB, priority 1996, dated 2002)

System: individuals (patients with severe marginal periodontitis, healthy control individuals)
Assay: Skin Prick Test with Lipid A
Type: in vivo, human
Conditions: for % + with 0.1 mg Lipid A / % + with 1 mg Lipid A: result registered after 18 to 24 hours
Description: Skin Prick Test with Lipid A was performed on three groups of individuals:
Patients with severe marginal periodontitis which responds to treatment.
Healthy control individuals without marginal periodontitis.
(The test was performed according to a routine procedure as described in Aas K, Backman A, Berlin L, Weeke B. Standardization of allergen extracts with appropriate methods. The combined use of skin prick testing and standardization of allergen extracts. Acta Allergol 1978; 33:238-240, and in Malling H-J. The skin prick testing and the use of histamine references. Allergy 1984; 39:596-601).
Patient and disease characteristics for the three groups can be found in Table 1 below. GI (gingival index) was used as measure of active disease. […] The test substance was Lipid A dissolved in water (0.1 mg/ml and 1 mg/ml). Histamine (10 mg/ml in water) and water served as positive and negative controls, respectively. The result was registered after 18 to 24 hours.
Students t-test was employed to test levels of significance for differences between test and control groups.

[1] = healthy control individuals without marginal periodontitis, n=16
[2] = patients with severe marginal periodontitis which responds to treatment (GI ≦ 20), n=38
[3] = refractory patients: severe marginal periodontitis not responding to treatment (GI > 20), n=14

| Compound | skin prick reaction (positive/negative) (all individuals of the three groups, histamine 10 mg/ml in water, positive control) | % + with 0.1 mg Lipid A [1] | % + with 1 mg Lipid A [1] | % + with 0.1 mg Lipid A [2] | % + with 1 mg Lipid A [2] | response to Lipid A in skin prick test (in words) (refractory patients (severe marginal periodontitis not responding to treatment)) | % + with 0.1 mg Lipid A [3] | % + with 1 mg Lipid A [3] |
| --- | --- | --- | --- | --- | --- | --- | --- | --- |
| NCCc1c[nH]cn1 [histamine] | reacted positively |  |  |  |  |  |  |  |
| Lipid A |  | 18.8% | 50.0% | 21.1% | 57.9% | almost no positive response | 7.1% | 7.1% |
